Data published in US20240270821A1, “GIP/GLP1/GCG TRI-RECEPTOR AGONISTS AND USES THEREOF” (priority 2023, published 2024).
Where two headings read alike, the source gives them in different places. Marks after values point to notes of the source that are not given here. Starred links: 1 amine or outer side, 2 acyl side, 3 side chain; linkers in the order of their positions; H or OH if unused. Non-standard residues stand in square brackets, D forms with d. Residues, ends and D or L forms follow the SMILES beside them. Groups on a side chain read outwards from the residue. *: point of attachment. C20 diacid = O=C(O)CCCCCCCCCCCCCCCCCCC(=O)*; C18 diacid = O=C(O)CCCCCCCCCCCCCCCCC(=O)*; αMePhe(2-F) = C[C@](N)(Cc1ccccc1F)C(=O)O; γGlu = O=C(O)[C@H](CCC(=O)[*:2])N[*:1]; αMe4Pal = C[C@](N)(Cc1ccncc1)C(=O)O; αMeY = C[C@](N)(Cc1ccc(O)cc1)C(=O)O; 4Pal = N[C@@H](Cc1ccncc1)C(=O)O; αMeL = CC(C)C[C@](C)(N)C(=O)O; αMeS = C[C@](N)(CO)C(=O)O; Orn = NCCC[C@H](N)C(=O)O; AEEA = NCCOCCOCC(=O)O; Aib = CC(C)(N)C(=O)O

What was measured:
hGcgR = hGcgR (Homo sapiens, UniProt P47871); assay: Functional cAMP activation in the presence of 0.1% casein (no HSA); assay type: cell-based; conditions: read-out: Relative cAMP EC50, hGcgR;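 note: intracellular cAMP rise after 30 min at 37 °C, read by HTRF against a cAMP standard curve, scaled from buffer only (0%) to maximal control ligand response (100%)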
Chain of hGcgR (P47871 26-477): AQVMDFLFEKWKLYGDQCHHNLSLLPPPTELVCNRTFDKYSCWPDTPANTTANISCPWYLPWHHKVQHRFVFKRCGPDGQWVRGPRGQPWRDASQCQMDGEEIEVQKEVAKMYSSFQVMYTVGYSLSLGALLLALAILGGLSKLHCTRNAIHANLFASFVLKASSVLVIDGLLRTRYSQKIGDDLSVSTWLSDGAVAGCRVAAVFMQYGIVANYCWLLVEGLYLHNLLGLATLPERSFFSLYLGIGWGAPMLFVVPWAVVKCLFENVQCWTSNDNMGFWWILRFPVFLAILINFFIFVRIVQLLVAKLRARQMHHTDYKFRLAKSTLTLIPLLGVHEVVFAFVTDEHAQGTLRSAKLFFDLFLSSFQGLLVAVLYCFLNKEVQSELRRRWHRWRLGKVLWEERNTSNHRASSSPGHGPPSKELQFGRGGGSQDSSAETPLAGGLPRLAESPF

[1] = Pepsin stability assay in simulated gastric fluid; assay type: in vitro ADME; conditions: pH 1.2, % Intact (SD)
Protocol: A pepsin stability assay is utilized to determine the relative stability of Example polypeptides in a simulated gastric proteolytic environment. […] The relative amount of intact peptide is quantified by mass spectrometry (MS). […] The examples were dissolved in 50 mM Tris buffer pH 8.0 at a concentration of 10 mg/mL as a stock solution. Pepsin A was reconstituted in SGF at 10 mg/mL. […] The example peptide and pepsin solutions were then incubated at 37° C. in a shaking incubator set at 100 rpm. Samples (25 μL) were withdrawn at different time intervals and quenched with 100 mM ammonium bicarbonate pH 9 (50 μL) to stop proteolytic activity. All samples were centrifuged, and the supernatants were analyzed by LC/MS to determine the remaining intact peptide.

hGLP-1R [2] = biological target: T1, hGLP-1R (Homo sapiens, UniProt P43220); assay: Functional cAMP activity in the presence of 1% HSA; assay type: cell-based; conditions: read-out: cAMP Rel EC50, hGLP-1R
Target sequence in this assay (P43220 24-463): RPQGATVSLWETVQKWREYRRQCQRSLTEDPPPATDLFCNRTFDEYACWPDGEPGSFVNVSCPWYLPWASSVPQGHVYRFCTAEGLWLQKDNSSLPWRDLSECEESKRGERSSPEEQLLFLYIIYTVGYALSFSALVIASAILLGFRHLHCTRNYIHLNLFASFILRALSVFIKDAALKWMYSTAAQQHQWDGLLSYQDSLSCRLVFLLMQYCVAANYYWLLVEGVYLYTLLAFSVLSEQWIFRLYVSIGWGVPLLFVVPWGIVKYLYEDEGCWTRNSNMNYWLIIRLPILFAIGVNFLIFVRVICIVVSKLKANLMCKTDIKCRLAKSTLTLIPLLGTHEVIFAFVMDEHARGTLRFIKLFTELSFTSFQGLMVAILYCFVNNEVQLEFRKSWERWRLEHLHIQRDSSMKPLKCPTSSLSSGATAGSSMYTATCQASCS

human GcgR = human GcgR (Homo sapiens, UniProt P47871); assay: Functional cAMP activity in the presence of 1% HSA; assay type: cell-based; conditions: read-out: cAMP Rel EC50, hGcgR
Chain of human GcgR (P47871 26-477): as the sequence (P47871 26-477) above

hGIPR [3] = biological target: T2, hGIPR (Homo sapiens, UniProt P48546); assay: Functional cAMP activity in the presence of 1% HSA; assay type: cell-based; conditions: read-out: cAMP Rel EC50, hGIPR
T2 sequence (P48546 22-466): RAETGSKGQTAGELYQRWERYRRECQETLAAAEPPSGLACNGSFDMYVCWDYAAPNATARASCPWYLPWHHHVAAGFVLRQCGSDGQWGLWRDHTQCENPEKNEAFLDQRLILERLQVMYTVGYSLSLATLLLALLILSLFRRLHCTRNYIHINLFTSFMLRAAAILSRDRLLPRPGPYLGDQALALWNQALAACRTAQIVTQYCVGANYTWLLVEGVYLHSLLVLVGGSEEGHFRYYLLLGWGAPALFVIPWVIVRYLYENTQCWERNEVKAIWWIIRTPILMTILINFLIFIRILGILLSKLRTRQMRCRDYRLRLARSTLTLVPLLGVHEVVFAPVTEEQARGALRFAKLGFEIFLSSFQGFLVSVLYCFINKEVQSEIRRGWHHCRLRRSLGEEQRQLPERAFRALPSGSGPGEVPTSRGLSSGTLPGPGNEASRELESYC

hGIPR [4] = biological target: T2, hGIPR; assay: Functional cAMP activation in the presence of 0.1% casein (no HSA); assay type: cell-based; conditions: read-out: Relative cAMP EC50, hGIPR;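 for Relative cAMP EC50, hGIPR: intracellular cAMP rise after 30 min at 37 °C read by HTRF against a standard curve, scaled between buffer alone (0%) and top control ligand concentration (100%), four-parameter fit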;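 for Relative cAMP EC50, hGLP-1R: intracellular cAMP rise after 30 min at 37 °C read by HTRF, normalized between buffer only (0%) and maximal control ligand (100%), four-parameter variable-slope fit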
hGLP-1R [5] = biological target: T1, hGLP-1R; assay: as above; assay type: cell-based; conditions: read-out: Relative cAMP EC50, hGLP-1R
Target sequence in this assay (P43220 24-463): as the sequence (P43220 24-463) above

[6] = Body weight in diet-induced obese C57BL/6 mice; assay type: in vivo; conditions: percent of starting weight, DIO mice, mean ± SEM n=5
Procedure, shortened: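 Daily weighing gave body weight as percent of starting value (mean±SEM, n=5) over 9-16 days of SC dosing, once daily or every 3 days, shortly before lights-off. Animals were weight-randomized male C57BL/6 DIO mice, 41-50 g, fed ad libitum on a calorie-rich diet.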

hGLP-1R [7] = biological target: T1, hGLP-1R; assay: GLP-1R CHO cell β-arrestin recruitment assay; assay type: cell-based; design: host or cells: CHO-K1 (PathHunter, assay-ready frozen cells); conditions: for EC50: CHO-K1 PathHunter, β-arrestin-2, 0.1% casein, read-out: hGLP1R β-arrestin Rel EC50; for % Stimulation Max: normalized to GLP-1(7-36) as maximum control;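 for all read-outs here: luminescence read after 90 min peptide exposure at 37 °C and a further 60 min with detection reagent at room temperature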
Target sequence in this assay (P43220 24-463): as above
Target sequence in this assay (P32121 whole entry partner): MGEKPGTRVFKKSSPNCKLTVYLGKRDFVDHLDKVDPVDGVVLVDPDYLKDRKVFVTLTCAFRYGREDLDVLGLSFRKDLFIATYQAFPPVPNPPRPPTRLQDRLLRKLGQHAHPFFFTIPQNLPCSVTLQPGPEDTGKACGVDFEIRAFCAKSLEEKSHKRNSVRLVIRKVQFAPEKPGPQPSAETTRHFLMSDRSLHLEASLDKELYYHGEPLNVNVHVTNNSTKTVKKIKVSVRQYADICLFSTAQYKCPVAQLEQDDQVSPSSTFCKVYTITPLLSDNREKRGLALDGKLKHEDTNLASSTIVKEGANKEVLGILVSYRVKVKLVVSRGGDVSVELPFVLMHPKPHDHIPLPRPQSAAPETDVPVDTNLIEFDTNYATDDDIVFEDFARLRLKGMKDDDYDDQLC
Protocol: CHO-KI cells expressing Pro-Link-tagged Human GLP-1R and enzyme-acceptor-tagged β-arrestin-2 may be obtained from DiscoveRx and prepared as assay-ready frozen cells. Test peptides are solubilized in DMSO and serial dilutions are performed using the Echo acoustic dispenser (LabCyte). Assay media is the PathHunter Cell Assay Buffer (DiscoveRx) containing 0.1% w/v hydrolyzed Casein (Sigma). […] Plates are incubated for 90 minutes in a 37′C/5% C02 incubator and 10 μl of PathHunter detection reagent is added (DiscoveRx) and plates are incubated at room temperature for 60 minutes. Luminescence signal is measured. Peptide concentration-response curves fit to a four-parameter logistic model to calculate potency as an EC50.

human GLP1-R = human GLP1-R (Homo sapiens, UniProt P43220); assay: GLP1-R internalization assay in HEK293 cells; assay type: cell-based; conditions: for EC50: HEK293 cells expressing SNAP-GLP-1R, read-out: GLP1R Internalization EC50; for Internalization % TOP: normalized to maximum concentration of GLP-1 (100%)
Chain of human GLP1-R (P43220 24-463): as the sequence (P43220 24-463) above

[8] = in the presence of 0.1% casein (no HSA), geometric mean

Row | Compound | EC50 (hGcgR) [nM] | remaining at 0.25 h, 0.4 mg/mL [1] [%] | remaining at 0.5 h, 0.4 mg/mL [1] [%] | remaining at 1 h, 0.4 mg/mL [1] [%] | EC50 (hGLP-1R [2]) [nM] | EC50 (human GcgR) [nM] | EC50 (hGIPR [3]) [nM] | EC50 (hGIPR [4]) [nM] | EC50 (hGLP-1R [5]) [nM] | EC50 (hGcgR; [8]) [nM] | Body weight (%) ([6]; 10 nmol/kg SC Q3D, 14 days) | EC50 (hGLP-1R [7]) [nM] | % Stimulation Max (hGLP-1R [7]) [%] | EC50 (hGIPR [4]; [8]) [nM] | EC50 (hGLP-1R [5]; [8]) [nM] | EC50 (human GLP1-R) [nM] | Internalization % TOP (human GLP1-R) [%] | Body weight (%) ([6]; 10 nmol/kg SC QD, 16 days)
1 | CC[C@H](C)[C@H](NC(=O)[C@H](CC(C)C)NC(=O)[C@](C)(Cc1ccc(O)cc1)NC(=O)[C@@H](CCC(=O)O)NC(=O)[C@@H](NC(=O)[C@H](Cc1ccccc1)NC(=O)[C@@H](NC(=O)C(C)(C)NC(=O)[C@H](CCC(N)=O)NC(=O)[C@H](C)NC(=O)[C@H](CCCCNC(=O)COCCOCCNC(=O)CC[C@H](NC(=O)CCCCCCCCCCCCCCCCC(=O)O)C(=O)O)NC(=O)[C@H](CCCN)NC(=O)[C@H](CC(=O)O)NC(=O)[C@H](CC(C)C)NC(=O)[C@](C)(CC(C)C)NC(=O)[C@@H](NC(=O)[C@](C)(CO)NC(=O)[C@H](Cc1ccncc1)NC(=O)[C@H](CC(=O)O)NC(=O)[C@H](CO)NC(=O)[C@@H](NC(=O)[C@](C)(Cc1ccccc1F)NC(=O)[C@@H](NC(=O)CNC(=O)[C@H](CCC(N)=O)NC(=O)C(C)(C)NC(=O)[C@@H](N)Cc1ccc(O)cc1)[C@@H](C)O)[C@@H](C)O)[C@@H](C)CC)[C@@H](C)O)[C@@H](C)CC)C(=O)N[C@@H](CCC(=O)O)C(=O)NCC(=O)NCC(=O)N1CCC[C@H]1C(=O)N[C@@H](CO)C(=O)N[C@@H](CO)C(=O)NCC(=O)N[C@@H](CCC(=O)O)C(=O)N1CCC[C@H]1C(=O)N1CCC[C@H]1C(=O)N1CCC[C@H]1C(=O)N[C@@H](CCC(=O)O)C(N)=O [Example 457] (H-Y[Aib]QGT[αMePhe(2-F)]TSD[4Pal][αMeS]I[αMeL]LD[Orn]K([AEEA-γGlu-C18 diacid])AQ[Aib]TFI[dE][αMeY]LIEGGPSSGEPPPE-NH2) | 2.86 | 78.8 | 68.9 | 60.1 | 11.7 | 333 | 0.881 | 0.00918 | 0.226 |  |  |  |  |  |  |  |  | 
2 | H-Y[Aib]QGTFTSDFSK[αMeL]LDKK([AEEA-γGlu-C20 diacid])AQ[Aib]AFIEYLLAGGPSSGEPPPSEE-NH2 [Example 4] |  |  |  |  | 869 | 1580 | 62.3 |  |  | 3.2 | 83.00 +/− 0.88**** % | 23.2 | 15.8 | 0.192 | 1.66 | 49.1 | 67.8 | 
3 | H-Y[Aib]QGTFTSD[4Pal]SQ[αMeL]LD[Orn]K([dE-γGlu-C18 diacid])AQ[αMe4Pal]EFI[dE][αMeY]LIAGGPSSGAPPPSGSEEE-NH2 [Example 1235] |  | 1.4 | 0 | 0 |  |  |  |  |  |  |  |  |  |  |  |  |  | 
4 | H-Y[Aib]QGT[αMePhe(2-F)]TSDYSILLDKIAAK([AEEA-γGlu-C20 diacid])AFIEYLIEGGPSSGEPPPSEG-NH2 [Example 296] |  |  |  |  | 171 | 517 | 21.8 |  |  | 1.72 |  | 14 | 55.2 | 0.0806 | 0.536 | 19.2 | 87.2 | 49.64 ± 1.97
5 | H-Y[Aib]QGT[αMePhe(2-F)]TSDYSKLLDKIAQK([AEEA-γGlu-C20 diacid])AFIEYLLEGGPSSGEPPPSEG-NH2 [Example 295] |  |  |  |  | 232 | 605 | 61.1 |  |  | 2.15 |  | 16.4 | 44.1 | 0.126 | 0.831 | 31.4 | 88.4 | 51.58 ± 3.24
6 | H-Y[Aib]QGT[αMePhe(2-F)]TSD[4Pal]SI[αMeL]LD[Orn]K([AEEA-γGlu-C18 diacid])AQ[αMe4Pal][Orn]FIE[αMeY]LIEGGPSSGEPPPEGT-NH2 [Example 505] | 0.445 | 91.6 | 78.9 | 53.5 | 39 | 92 | 2.1 | 0.00707 | 0.205 |  |  |  |  |  |  |  |  | 
7 | H-Y[Aib]QGT[αMePhe(2-F)]TSD[4Pal]SI[αMeL]LD[Orn]K([AEEA-γGlu-C18 diacid])AQ[αMe4Pal][Orn]FI[dE]YLIEGGPSSGEPPPEGT-NH2 [Example 500] | 4.04 | 10.6 | 1 | 0 | 50.3 | 494 | 3.9 | 0.0375 | 0.623 |  |  |  |  |  |  |  |  | 
8 | H-Y[Aib]QGT[αMePhe(2-F)]TSD[4Pal][αMeS]I[αMeL]LD[Orn]K([AEEA-γGlu-C18 diacid])AQ[αMe4Pal]EFI[dE][αMeY]LIEGGPSSGAPPPSGTGE-NH2 [Example 714] | 1.76 | 99.2 | 102 | 96.9 | 33.2 | 197 | 0.754 | 0.00764 | 0.289 |  |  |  |  |  |  |  |  | 
9 | H-Y[Aib]QGT[αMePhe(2-F)]TSD[4Pal][αMeS]I[αMeL]LD[Orn]K([AEEA-γGlu-C18 diacid])AQ[αMe4Pal]EFI[dE][αMeY]LIEGGPSSGEPPPSGGGE-NH2 [Example 742] | 1.25 | 100 | 113 | 103 | 33.3 | 203 | 0.857 | 0.00688 | 0.266 |  |  |  |  |  |  |  |  | 
10 | H-Y[Aib]QGT[αMePhe(2-F)]TSD[4Pal][αMeS]I[αMeL]LD[Orn]K([AEEA-γGlu-C18 diacid])AQ[αMe4Pal]EFI[dE][αMeY]LIEGGPSSGEPPPSGTGE-NH2 [Example 711] | 1.29 | 95 | 91.6 | 91.9 | 35.2 | 197 | 0.786 | 0.00861 | 0.355 |  |  |  |  |  |  |  |  | 
